Laboratory results taken from patent US20250381179A1, “CHROMAN-BASED COMPOUNDS FOR TREATING CANCER” (priority 2024, published 2025).

Test: Phase 1 study: safety and tolerability (TEAEs, NCI CTCAE v5.0)
Experimental: The study employed an open-label, 3+3 design, with the option of adding backfill patients to each cohort cleared and deemed safe. […] Tumor responses were assessed every 2 cycles using RECIST v1.1 criteria. […] The study also involves an ongoing dose escalation study where participants receive 100 mg, 200 mg, 300 mg, 400 mg, and 600 mg once daily (QD) dose levels.
Safety was assessed through the analysis of the reported incidence of treatment-emergent AEs. Treatment-emergent AEs are those with an onset on or after the initiation of therapy and will be graded according to NCI CTCAE Version 5.0. Other safety endpoints, including laboratory results, vital signs, and ECG findings, were summarized for all patients in the Safety set.

With `O=C1CC[C@H](N2Cc3cc(N4CCN(CC5CCN(c6ccc([C@@H]7c8ccc(O)cc8OC[C@@H]7c7ccccc7)cc6F)CC5)CC4)ccc3C2=O)C(=O)N1` [compound (1-g), (S)-3-(5-(4-((1-(2-fluoro-4-((3S,4R)-7-hydroxy-3-phenylchroman-4-yl)phenyl)piperidin-4-yl)methyl)piperazin-1-yl)-1-oxoisoindolin-2-yl)piperidine-2,6-dione] the “TEAE: Nausea” value (400 mg QD (N = 6)) was 1 (16.7) n (%), the “TEAE: Neutrophil Count Decreased” value (400 mg QD (N = 6)) was 2 (33.3) n (%) and the “TEAE: Oedema Peripheral” value (400 mg QD (N = 6)) was 1 (16.7) n (%). For the same compound, the “TEAE: Ophthalmic Migraine” value (400 mg QD (N = 6)) was 0 n (%), the “TEAE: Oral Pain” value (400 mg QD (N = 6)) was 0 n (%) and the “TEAE: Pain In Extremity” value (400 mg QD (N = 6)) was 0 n (%). For the same compound, the “TEAE: Pharyngitis” value (400 mg QD (N = 6)) was 0 n (%), the “TEAE: Platelet Count Decreased” value (400 mg QD (N = 6)) was 1 (16.7) n (%) and the “TEAE: Pleural Effusion” value (400 mg QD (N = 6)) was 0 n (%). The “TEAE: Pneumonia” value (400 mg QD (N = 6)) was 0 n (%), the “TEAE: Productive Cough” value (400 mg QD (N = 6)) was 0 n (%) and the “TEAE: Rash Maculo-Papular” value (400 mg QD (N = 6)) was 0 n (%). The “TEAE: Rhinitis Allergic” value (400 mg QD (N = 6)) was 0 n (%), the “TEAE: Rib Fracture” value (400 mg QD (N = 6)) was 0 n (%) and the “TEAE: Seizure” value (400 mg QD (N = 6)) was 0 n (%). The “TEAE: Sepsis” value (400 mg QD (N = 6)) was 0 n (%), the “TEAE: Tremor” value (400 mg QD (N = 6)) was 0 n (%) and the “TEAE: Upper Respiratory Tract Infection” value (400 mg QD (N = 6)) was 0 n (%). For the same compound, the “TEAE: Urinary Tract Infection” value (400 mg QD (N = 6)) was 0 n (%), the “TEAE: Vaginal Haemorrhage” value (400 mg QD (N = 6)) was 0 n (%) and the “TEAE: Vomiting” value (400 mg QD (N = 6)) was 0 n (%). For the same compound, the “related TEAE: Alopecia” value (400 mg QD (N = 6)) was 1 (16.7) n (%), the “related TEAE: Arthralgia” value (400 mg QD (N = 6)) was 0 n (%) and the “related TEAE: Constipation” value (400 mg QD (N = 6)) was 1 (16.7) n (%). For the same compound, the “related TEAE: Diarrhea” value (400 mg QD (N = 6)) was 1 (16.7) n (%), the “related TEAE: Dysgeusia” value (400 mg QD (N = 6)) was 1 (16.7) n (%) and the “related TEAE: Eructation” value (400 mg QD (N = 6)) was 1 (16.7) n (%). The “related TEAE: Fatigue” value (400 mg QD (N = 6)) was 0 n (%), the “related TEAE: Flatulence” value (400 mg QD (N = 6)) was 1 (16.7) n (%) and the “related TEAE: Hot Flush” value (400 mg QD (N = 6)) was 0 n (%). For the same compound, the “related TEAE: Hyperhidrosis” value (400 mg QD (N = 6)) was 0 n (%), the “related TEAE: Nail Disorder” value (400 mg QD (N = 6)) was 1 (16.7) n (%) and the “related TEAE: Nausea” value (400 mg QD (N = 6)) was 1 (16.7) n (%). The “related TEAE: Neutrophil Count Decreased” value (400 mg QD (N = 6)) was 2 (33.3) n (%), the “related TEAE: Platelet Count Decreased” value (400 mg QD (N = 6)) was 1 (16.7) n (%) and the “related TEAE: Tremor” value (400 mg QD (N = 6)) was 0 n (%). For the same compound, the “related TEAE: Vomiting” value (400 mg QD (N = 6)) was 0 n (%), the “Patients with Any Compound (1-g) related TEAE” value (600 mg QD (N = 4)) was 2 (50.0) n (%) and the “Patients with Any TEAE” value (600 mg QD (N = 4)) was 2 (50.0) n (%). The “TEAE: Abdominal Distension” value (600 mg QD (N = 4)) was 0 n (%), the “TEAE: Abdominal Pain” value (600 mg QD (N = 4)) was 0 n (%) and the “TEAE: Acute Kidney Injury” value (600 mg QD (N = 4)) was 0 n (%). For the same compound, the “TEAE: Adrenal Insufficiency” value (600 mg QD (N = 4)) was 0 n (%), the “TEAE: Alopecia” value (600 mg QD (N = 4)) was 0 n (%) and the “TEAE: Anaemia” value (600 mg QD (N = 4)) was 0 n (%). For the same compound, the “TEAE: Anxiety” value (600 mg QD (N = 4)) was 0 n (%), the “TEAE: Arthralgia” value (600 mg QD (N = 4)) was 0 n (%) and the “TEAE: Axillary Vein Thrombosis” value (600 mg QD (N = 4)) was 0 n (%). The “TEAE: Back Pain” value (600 mg QD (N = 4)) was 1 (25.0) n (%), the “TEAE: Basal Cell Carcinoma” value (600 mg QD (N = 4)) was 0 n (%) and the “TEAE: Breast Pain” value (600 mg QD (N = 4)) was 0 n (%). The “TEAE: Confusional State” value (600 mg QD (N = 4)) was 0 n (%), the “TEAE: Constipation” value (600 mg QD (N = 4)) was 1 (25.0) n (%) and the “TEAE: Cough” value (600 mg QD (N = 4)) was 0 n (%). The “TEAE: Covid-19 Pneumonia” value (600 mg QD (N = 4)) was 0 n (%), the “TEAE: Dehydration” value (600 mg QD (N = 4)) was 0 n (%) and the “TEAE: Diarrhoea” value (600 mg QD (N = 4)) was 0 n (%). The “TEAE: Dizziness” value (600 mg QD (N = 4)) was 0 n (%), the “TEAE: Dysgeusia” value (600 mg QD (N = 4)) was 0 n (%) and the “TEAE: Dyspepsia” value (600 mg QD (N = 4)) was 0 n (%). The “TEAE: Dyspnoea” value (600 mg QD (N = 4)) was 0 n (%), the “TEAE: Dysuria” value (600 mg QD (N = 4)) was 0 n (%) and the “TEAE: Eructation” value (600 mg QD (N = 4)) was 0 n (%). The “TEAE: Fall” value (600 mg QD (N = 4)) was 0 n (%), the “TEAE: Fatigue” value (600 mg QD (N = 4)) was 0 n (%) and the “TEAE: Flatulence” value (600 mg QD (N = 4)) was 0 n (%). For the same compound, the “TEAE: Fracture” value (600 mg QD (N = 4)) was 0 n (%), the “TEAE: Fungal Infection” value (600 mg QD (N = 4)) was 0 n (%) and the “TEAE: Haematoma” value (600 mg QD (N = 4)) was 0 n (%). For the same compound, the “TEAE: Hot Flush” value (600 mg QD (N = 4)) was 1 (25.0) n (%), the “TEAE: Hyperglycaemia” value (600 mg QD (N = 4)) was 0 n (%) and the “TEAE: Hyperhidrosis” value (600 mg QD (N = 4)) was 1 (25.0) n (%). For the same compound, the “TEAE: Hypokalaemia” value (600 mg QD (N = 4)) was 0 n (%) and the “TEAE: Hypotension” value (600 mg QD (N = 4)) was 0 n (%).
